{
  "source": "patent US20180185374A1",
  "about": "“INHIBITORS OF MTOR KINASE AS ANTI-VIRAL AGENTS” (THE TRUSTEES OF PRINCETON UNIVERSITY, priority 2009, published 2018)",
  "key": {"[1]": {"test_system": "rpS6", "test": "rpS6 phosphorylation in HCMV-infected fibroblasts, Western blot", "format": "cell-based, human", "details": "rapamycin 20 nM, Torin1 250 nM; 3 PFU/cell", "experimental": "(§1) FIG. 4. Rapamycin-resistant mTOR activity is required for 4EBP1 phosphorylation and eIF4F complex integrity during HCMV infection. Serum-starved confluent human fibroblasts were infected with HCMV at a multiplicity of 3 PFU/cell. […] (A) At 48 hpi the phosphorylation status of mTORC1 targets was assessed by Western blot assay by using antibodies to phosphorylated targets (4EBP1-PT^37/46 and rpS6-PS^235/6) and total proteins. Tubulin was assayed as a loading control. (B) Same as above (A) except that cells were harvested at the indicated times. (C and D) After mock infection (M) or infection with HCMV (WT) at a multiplicity of 3 PFU/cell, cultures were harvested at the indicated times. Equivalent amounts of protein from each sample were incubated with m^7GTP-Sepharose, and the isolated protein complexes were analyzed by Western blotting using the indicated antibodies to the eIF4F complex and 4EBP1. In all cases the results are representative of at least two independent experiments. lys, lysate.\n(§2) HCMV infection induces mTORC1 activity, but the phosphorylation of mTORC1 targets is differentially sensitive to the mTORC1 inhibitor rapamycin. […] Total 4EBP1, rpS6, and tubulin levels were monitored to control for protein recovery. […]"}, "[2]": {"test_system": "HCMV", "test": "GFP marker expression from viral genome, percentage of infected cells", "format": "cell-based, human cytomegalovirus", "details": "24 hpi; 250 nM", "experimental": "(§3) FIG. 2. […] Serum-starved confluent fibroblasts were infected with HCMV at a multiplicity of 3 PFU/cell. […] Control cultures received the vehicle in which Torin1 was dissolved (NT). At 2 hpi cells were harvested, and cell-associated viral DNA was quantified by real-time PCR analysis. Error bars represent the standard errors of the means from two independent experiments performed in duplicate. […] The level of IE1 was determined at 6 hpi by a Western blot assay using an IE1-specific monoclonal antibody. The image is representative of two independent experiments. […] The expression of a GFP marker gene present in the viral genome was monitored at 24 h after infection in the presence or absence of drug."}, "[3]": {"test_system": "HCMV", "test": "Torin1 drug release experiment, HCMV yield 16 days post infection by TCID50", "format": "cell-based, human cytomegalovirus", "details": "≤250 nM drug", "experimental": "FIG. 1. […] Serum-starved confluent human fibroblasts were infected with HCMV at a multiplicity of 0.05 PFU/cell. Cell-free virus was quantified by a TCID50 assay, and error bars represent the standard errors of the means from two independent experiments, each performed in duplicate. […] Supernatants were harvested every other day and replaced with fresh medium containing the appropriate treatment, and virus in the supernatant was assayed on the indicated days. […] Infected fibroblasts were treated with various doses of Torin1. Medium with drug was replaced every other day, and virus in the supernatant was assayed on day 8 post infection (black bars). On day 8, a second set of cultures was washed twice, serum-free medium containing no drug was added to each well, and virus was assayed after an additional 8 days (16 days post infection) (white bars).\nTo further confirm that the viral growth defect was not the result of cytotoxicity, we performed a drug release experiment. […] Eight days later, virus in the supernatant was quantified by the TCID50 method (16 days post infection) (FIG. 1B)."}, "[4]": {"test_system": "HCMV", "test": "HCMV multistep growth in serum-starved human fibroblasts, cell-free virus by TCID50", "format": "cell-based, human cytomegalovirus"}, "[5]": {"test_system": "4EBP1", "test": "4EBP1 phosphorylation in HCMV-infected fibroblasts, Western blot", "format": "cell-based, human", "details": "rapamycin 20 nM, Torin1 250 nM; 3 PFU/cell", "experimental": "as §1, §2"}, "[6]": {"test_system": "HCMV", "test": "HCMV entry: cell-associated viral DNA at 2 hpi by real-time PCR", "format": "cell-based, human cytomegalovirus", "details": "250 nM, 24 h pretreatment or after adsorption, 3 PFU/cell", "experimental": "as §3\nDetermination of viral DNA and transcript accumulation in infected cells. The accumulation of viral DNA during HCMV infection was monitored by quantitative PCR (qPCR) as described previously (Terhune, et al. (2007) J. Virol. 81:3109-3123).\nBriefly, primary human fibroblasts were infected with BADinGFP at a multiplicity of 0.05 PFU/cell. At the indicated times, cells were harvested by scraping them into medium and were stored as frozen cell pellets until analysis. Cell pellets were resuspended in 500 μl of a solution containing 400 mM NaCl, 10 mM Tris (pH 7.5), and 10 mM EDTA. […] For each sample, DNA was quantified by using a NanoDrop spectrophotometer (Thermo Scientific). […]"}, "[7]": {"test_system": "eIF4F complex", "test": "m7GTP-Sepharose cap-binding assay, HCMV-infected fibroblasts", "format": "cell-based, human", "details": "rapamycin 20 nM, Torin1 250 nM", "experimental": "as §1\nThe phosphorylation status of 4EBP1 regulates cap-dependent protein translation. Hypophosphorylated 4EBP1 binds to eIF4E and inhibits the formation of the eIF4F complex, while the phosphorylation of 4EBP1 inhibits its interaction with eIF4E. […]"}},
  "data": [
    {"smiles": "CCC(=O)N1CCN(c2ccc(-n3c(=O)ccc4cnc5ccc(-c6cnc7ccccc7c6)cc5c43)cc2C(F)(F)F)CC1", "note": "[Torin1]", "values": [
      {"measurement": "induction of rpS6 phosphorylation during HCMV infection", "setting": "[1]", "value": "markedly inhibited"},
      {"measurement": "percentage of cells expressing GFP marker", "setting": "[2]", "value": "did not alter the percentage of cells"},
      {"measurement": "increase in virus yield after reversal of 8-day treatment", "setting": "[3]", "value": "≥ 100", "unit": "fold"},
      {"measurement": "reduction of HCMV yield", "setting": "[4]; day 10, 0.05 PFU/cell, rapamycin 20 nM, Torin1 250 nM", "value": "about 160 fold"},
      {"measurement": "IC50", "setting": "[4]; read-out: 50% inhibitory concentration (IC50) for production of HCMV progeny, 8 days post infection", "value": "~60", "unit": "nM"},
      {"measurement": "phosphorylation of 4EBP1 during HCMV infection", "setting": "[5]", "value": "substantially blocked"},
      {"measurement": "level of cell-associated viral DNA", "setting": "[6]", "value": "not influenced"},
      {"measurement": "association of 4EBP1 with m7GTP-Sepharose", "setting": "[7]", "value": "substantially increased association"},
      {"measurement": "association of eIF4G and eIF4A with the cap analog", "setting": "[7]", "value": "reduced association"}
    ]}
  ]
}
